In patent US20060263802A1 (priority 2003, published 2006):
“Also recorded” adds a separate entry of the source.

Columns and labels:
Format in all cases: binding
[1] = tested on: human monoclonal antibody CR57
[2] = tested on: human monoclonal antibody CRJA
[3] = tested on: human monoclonal antibody CR57; remark: listed apart in the source
[4] = tested on: human monoclonal antibody CRJB
[5] = tested on: human monoclonal antibody CRJA; remark: listed apart in the source
[6] = tested on: human monoclonal antibody CRJB; remark: listed apart in the source
[7] = tested on: human monoclonal antibody CR57; remark: listed apart in the source

Row | Sequence | binding of CR57 to 12-, 10- and 8-mer peptides [1] | Binding of CRJA (10 μg/ml) to looped/cyclic peptide (PEPSCAN-ELISA signal) [2] | Binding of CR57 (10 μg/ml) to looped/cyclic peptide (PEPSCAN-ELISA signal) [3] | Binding of CRJB to linear peptide (PEPSCAN-ELISA signal) [4] | Binding of CRJA to linear peptide (PEPSCAN-ELISA signal) [5] | Binding of CRJB (10 μg/ml) to looped/cyclic peptide (PEPSCAN-ELISA signal) [6] | Binding of CR57 to linear peptide (PEPSCAN-ELISA signal) [7] | other results
1 | ACKLKLCGVL | bound |  |  |  |  |  |  | 
2 | LKLCGVLGLR | bound |  |  |  |  |  |  | 
3 | KLKLCGVLGL | bound |  |  |  |  |  |  | 
4 | KLCGVLGLRLMD | bound |  |  |  |  |  |  | 
5 | CKLKLCGVLGLR | bound |  |  |  |  |  |  | 
6 | KLKLCGVL | bound |  |  |  |  |  |  | 
7 | LKLCGVLG | bound |  |  |  |  |  |  | 
8 | KLCGVLGL | bound |  |  |  |  |  |  | 
9 | KGACKLKLCGVL | bound |  |  |  |  |  |  | 
10 | CKLKLCGVLG | bound |  |  |  |  |  |  | 
11 | GACKLKLCGVLG | bound |  |  |  |  |  |  | 
12 | TNHDYTIWMPENPRL |  | 72 | 40 | 129 | 91 | 58 | 69 | 
13 | WMPENPRLGMSCDIF |  | 164 | 199 | 113 | 97 | 206 | 88 | binding of antibody CR57 to looped/cyclic peptide (PEPSCAN OD) [3]: clearly bound; binding of antibody CRJB to looped/cyclic peptide (PEPSCAN OD) [6]: display reactivity; also recorded: clearly bound
14 | EAEDFVEVHLPDVHN |  |  |  |  |  |  |  | Binding of CRJA to looped/cyclic peptide (PEPSCAN-ELISA signal) [2]: 105; Binding of CR57 to looped/cyclic peptide (PEPSCAN-ELISA signal) [3]: 98; Binding of human monoclonal antibody CRJB to linear peptide (PEPSCAN-ELISA signal) [4]: 117; Binding of human monoclonal antibody CRJA to linear peptide (PEPSCAN-ELISA signal) [5]: 97; Binding of CRJB to looped/cyclic peptide (PEPSCAN-ELISA signal) [6]: 93; Binding of human monoclonal antibody CR57 to linear peptide (PEPSCAN-ELISA signal) [7]: 76
15 | ACKLKLCGVLGL | bound |  |  |  |  |  |  | 
16 | SGVAVSSTYCSTNHD |  | 90 | 79 | 110 | 84 | 55 | 79 | 
17 | MNGFTCTGVVTEAEN |  | 78 | 85 | 99 | 87 | 118 | 69 | 
18 | MPENPRLGMSCDIFT |  | 111 | 107 | 121 | 107 | 87 | 105 | 
19 | TKESLVIISPSVADL |  | 88 | 99 | 112 | 102 | 80 | 86 | 
20 | DEIEHLVVEELVRKR |  |  |  | 123 | 90 |  | 94 | Binding of CRJA (10 μg/ml) to looped/cyclic peptide (PEPSCAN-ELISA) [2]: 106; Binding of CR57 (10 μg/ml) to looped/cyclic peptide (PEPSCAN-ELISA) [3]: 113; Binding of CRJB (10 μg/ml) to looped/cyclic peptide (PEPSCAN-ELISA) [6]: 106
21 | SCPNNLVVEDEGCTN |  | 85 | 82 | 114 | 88 | 69 | 83 | 
22 | HNQVSGVDLGLPNWG |  |  |  |  |  |  |  | Binding of CRJA to looped/cyclic peptide (PEPSCAN-ELISA signal) [2]: 55; Binding of CR57 to looped/cyclic peptide (PEPSCAN-ELISA signal) [3]: 78; Binding of human monoclonal antibody CRJB to linear peptide (PEPSCAN-ELISA signal) [4]: 106; Binding of human monoclonal antibody CRJA to linear peptide (PEPSCAN-ELISA signal) [5]: 66; Binding of CRJB to looped/cyclic peptide (PEPSCAN-ELISA signal) [6]: 100; Binding of human monoclonal antibody CR57 to linear peptide (PEPSCAN-ELISA signal) [7]: 76
23 | SIMTTKSVSFRRLSH |  |  |  | 130 | 92 |  | 54 | Binding of CRJA (10 μg/ml) to looped/cyclic peptide (PEPSCAN-ELISA) [2]: 72; Binding of CR57 (10 μg/ml) to looped/cyclic peptide (PEPSCAN-ELISA) [3]: 69; Binding of CRJB (10 μg/ml) to looped/cyclic peptide (PEPSCAN-ELISA) [6]: 25
24 | CTNLSGFSYMELKVG |  | 79 | 70 | 110 | 84 | 96 | 47 | 
25 | DYTIWMPENPRLGMS |  | 86 | 83 | 127 | 106 | 66 | 93 | 
26 | VFKDGDEAEDFVEVH |  |  |  |  |  |  |  | Binding of CRJA to looped/cyclic peptide (PEPSCAN-ELISA signal) [2]: 104; Binding of CR57 to looped/cyclic peptide (PEPSCAN-ELISA signal) [3]: 168; Binding of human monoclonal antibody CRJB to linear peptide (PEPSCAN-ELISA signal) [4]: 106; Binding of human monoclonal antibody CRJA to linear peptide (PEPSCAN-ELISA signal) [5]: 125; Binding of CRJB to looped/cyclic peptide (PEPSCAN-ELISA signal) [6]: 125; Binding of human monoclonal antibody CR57 to linear peptide (PEPSCAN-ELISA signal) [7]: 100
27 | LVIISPSVADLDPYD |  | 117 | 98 | 107 | 104 | 102 | 85 | 
28 | SSTYCSTNHDYTIWM |  | 90 | 96 | 107 | 71 | 66 | 76 | 
29 | CHPHVNGVFFNGIIL |  |  |  | 150 | 94 |  | 97 | Binding of CRJA (10 μg/ml) to looped/cyclic peptide (PEPSCAN-ELISA) [2]: 105; Binding of CR57 (10 μg/ml) to looped/cyclic peptide (PEPSCAN-ELISA) [3]: 113; Binding of CRJB (10 μg/ml) to looped/cyclic peptide (PEPSCAN-ELISA) [6]: 101
